Experiments:
[1] = Genotoxicity in Salmonella typhimurium TA1535 by Ames test; assay type: toxicity; conditions: salmonella enterica subsp. enterica serovar typhimurium
[2] = Genotoxicity in Salmonella typhimurium TA100 by Ames test; assay type: toxicity; conditions: salmonella enterica subsp. enterica serovar typhimurium
[3] = Toxicity in cynomolgous monkey assessed as increase in vomiting at 90 to 200 mg/kg/day for 28 days consecutively; assay type: organism-based, Macaca fascicularis; conditions: cynomolgus monkey, in vivo, 672 h; dose 90-200 mg/kg/day, time 28 day
[4] = target: T1, Cytochrome P450 1A2 (Homo sapiens, UniProt P05177); assay: Induction of CYP1A2 in human hepatocytes at 50 uM incubated for 48 hrs with media containing compound renewal every 24 hrs followed by substrate addition measured after 30 mins by LC-MS/MS analysis; assay type: ADME, cell-based, Hepatocyte; conditions: 48.5 h
T1 sequence (P05177 whole entry): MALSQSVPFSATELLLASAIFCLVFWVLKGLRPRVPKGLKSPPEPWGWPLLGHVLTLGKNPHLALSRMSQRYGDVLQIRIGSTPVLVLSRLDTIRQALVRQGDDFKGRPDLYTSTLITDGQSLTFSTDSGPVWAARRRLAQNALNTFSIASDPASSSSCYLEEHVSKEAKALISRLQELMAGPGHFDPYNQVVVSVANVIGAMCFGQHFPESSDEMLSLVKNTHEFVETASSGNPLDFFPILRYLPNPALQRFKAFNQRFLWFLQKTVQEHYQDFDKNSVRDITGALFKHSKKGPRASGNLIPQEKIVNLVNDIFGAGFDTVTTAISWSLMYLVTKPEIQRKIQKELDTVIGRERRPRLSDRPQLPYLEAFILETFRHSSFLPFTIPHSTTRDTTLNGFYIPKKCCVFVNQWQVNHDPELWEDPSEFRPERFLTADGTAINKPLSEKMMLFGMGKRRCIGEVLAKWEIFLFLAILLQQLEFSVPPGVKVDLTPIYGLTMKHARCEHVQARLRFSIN

[5] = Half life in Beagle dog at 5 mg/kg, po measured upto 24 hrs by LC-MS/MS analysis; assay type: ADME, organism-based, Canis lupus familiaris; conditions: in vivo
[6] = Tmax in Tufted capuchin monkey at 30 mg/kg, po measured for 24 hrs by LC-MS/MS analysis; assay type: ADME, organism-based; conditions: sapajus apella, in vivo
[7] = test system: Sapajus apella; conditions: dose 100.0 mg/kg/day, route po, time 3.0 day
[8] = Toxicity in rat assessed as increase in CHOL level at 120 mg/kg/day for 28 days; assay type: organism-based; conditions: in vivo, 672 h, time 28 day
[9] = test system: Sapajus apella; assay: Urate lowering effect in Tufted capuchin monkey assessed as serum xanthine level at 30 mg/kg/day, po qd for 3 days consecutively; assay type: functional; conditions: time 3 day
[10] = Toxicity in rat administered daily for 28 days; conditions: in vivo, time 28 day
[11] = Toxicity in cynomolgous monkey assessed as development-limiting effect; design: species or system Macaca fascicularis; conditions: cynomolgus monkey, in vivo
[12] = AUC (last) in Tufted capuchin monkey at 10 mg/kg, po measured for 24 hrs by LC-MS/MS analysis; assay type: ADME, organism-based; conditions: sapajus apella, in vivo
[13] = Toxicity in rat assessed as increase in ALP level at 120 mg/kg/day for 28 days; assay type: organism-based; conditions: in vivo, 672 h, time 28 day
[14] = AUC (last) in Beagle dog at 5 mg/kg, po measured upto 24 hrs by LC-MS/MS analysis; assay type: ADME, organism-based, Canis lupus familiaris; conditions: in vivo
[15] = test system: Sapajus apella; conditions: dose 30.0 mg/kg/day, route po, time 3.0 day
[16] = Genotoxicity in Salmonella typhimurium TA102 by Ames test; assay type: toxicity; conditions: salmonella enterica subsp. enterica serovar typhimurium
[17] = Toxicity in rat assessed as acute inflammation in pylorus at 120 mg/kg/day for 28 days by H and E staining based analysis; assay type: organism-based; conditions: in vivo, 672 h, time 28 day
[18] = AUC (last) in overnight-fasted Sprague-Dawley rat at 5 mg/kg, po measured upto 24 hrs by LC-MS/MS analysis; assay type: ADME, organism-based; conditions: in vivo
[19] = Tmax in Tufted capuchin monkey at 100 mg/kg, po measured for 24 hrs by LC-MS/MS analysis; assay type: ADME, organism-based; conditions: sapajus apella, in vivo
[20] = Half life in Tufted capuchin monkey at 100 mg/kg, po measured for 24 hrs by LC-MS/MS analysis; assay type: ADME, organism-based; conditions: sapajus apella, in vivo
[21] = Ratio of drug concentration in Sprague-Dawley rat liver to plasma at 3 mg/kg, po measured for 24 hrs by LC-MS/MS analysis; assay type: ADME, organism-based; conditions: liver and plasma
[22] = Toxicity in cynomolgous monkey assessed as increase in salivation at 90 to 200 mg/kg/day for 28 days consecutively; assay type: organism-based, Macaca fascicularis; conditions: cynomolgus monkey, in vivo, 672 h; dose 90-200 mg/kg/day, time 28 day
[23] = AUC (last) in Tufted capuchin monkey at 30 mg/kg, po measured for 24 hrs by LC-MS/MS analysis; assay type: ADME, organism-based; conditions: sapajus apella, in vivo
[24] = target: Cytochrome P450 2D6 (Homo sapiens, UniProt P10635); assay: Inhibition of CYP2D6 in human liver microsomes in presence of NADPH by LC-MS/MS analysis; assay type: ADME, Microsome
Cytochrome P450 2D6, sequence (P10635 whole entry): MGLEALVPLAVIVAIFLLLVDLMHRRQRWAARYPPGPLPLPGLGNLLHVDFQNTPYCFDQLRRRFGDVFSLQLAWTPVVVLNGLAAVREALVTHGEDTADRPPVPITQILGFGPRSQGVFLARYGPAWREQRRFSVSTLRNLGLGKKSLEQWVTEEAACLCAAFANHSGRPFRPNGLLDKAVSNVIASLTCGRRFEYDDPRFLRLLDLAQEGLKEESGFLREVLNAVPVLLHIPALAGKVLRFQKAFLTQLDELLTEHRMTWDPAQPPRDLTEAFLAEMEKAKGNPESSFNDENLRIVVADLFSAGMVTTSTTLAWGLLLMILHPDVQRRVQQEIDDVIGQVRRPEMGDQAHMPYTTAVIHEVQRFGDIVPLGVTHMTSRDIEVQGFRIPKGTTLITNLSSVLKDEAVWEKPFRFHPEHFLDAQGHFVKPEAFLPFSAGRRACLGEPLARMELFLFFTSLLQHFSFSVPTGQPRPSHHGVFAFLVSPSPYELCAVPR

[25] = Cmax in overnight-fasted Sprague-Dawley rat at 5 mg/kg, po measured upto 24 hrs by LC-MS/MS analysis; assay type: ADME, organism-based; conditions: in vivo
[26] = Inhibition of SLC (unknown origin); design: species or system Homo sapiens
[27] = AUC (last) in Tufted capuchin monkey at 100 mg/kg, po measured for 24 hrs by LC-MS/MS analysis; assay type: ADME, organism-based; conditions: sapajus apella, in vivo

SMILES: N#Cc1cc(-c2ccc(C(=O)O)c(O)c2)c2oc(F)cc2c1
- Activity [1]: Non-Toxic
- Activity [2]: Non-Toxic
- Activity [3]: Toxic
- Activity [4]: < 20%
- half-life [5]: 169 min
- Tmax [6]: 48 min
- AUC [7]: 357000 ng·h/mL
- Activity [8]: Toxic
- Activity [9]: 6.19 µg·h/mL
- NOAEL at 672 h [10]: 60 mg/kg/day
- Activity [11]: Non-Toxic
- AUC(0-t) at 24 h [12]: 4340 ng·h/mL
- Activity [13]: Toxic
- AUC(0-t) at 24 h [14]: 11500 ng·h/mL
- AUC [15]: 504000 ng·h/mL
- Activity [16]: Non-Toxic
- Activity [17]: Toxic
- AUC(0-t) at 24 h [18]: 81700 ng·h/mL
- Tmax [19]: 54 min
- half-life [20]: 193 min
- Kp at 24 h [21]: 1.17
- Activity [22]: Toxic
- AUC(0-t) at 24 h [23]: 31600 ng·h/mL
- IC50 [24]: > 50 µM
- Cmax [25]: 17200 ng/mL
- IC50 [26]: > 628 nM
- AUC(0-t) at 24 h [27]: 302 µg·h/mL
